From BindingDB's records for doi:10.1021/acsmedchemlett.0c00340 (California Institute of Technology, 2020)

assay: Positive allosteric modulator activity at human alpha1beta2S GABA-A receptor expressed in Xenopus laevis oocytes assessed as change in GABA EC50 at 40 uM by two electrode voltage-clamp assay

Row | EC50 [µM] | Compound
1 | 13 | CN1CC[C@]2(O)c3ccccc3N(C)[C@]12c1ccccc1
2 | 9 | CN1CC[C@]2(O)c3cc(I)ccc3N(C)[C@]12c1ccccc1
3 | 16 | CN1CC[C@]2(O)c3cc(Br)ccc3N(C)[C@]12c1ccccc1
